According to patent US20220340598A1, “PYRAZOLOPYRIDINONE COMPOUNDS” (Janssen Pharmaceutica NV, priority 2017, published 2022):

What was measured:
[1] = biological target: T1, human FGFR3 V555M enzyme (cytoplasmic domain carrying V555M mutation) (Homo sapiens, UniProt P22607, V555M); assay: FGFR3 V555M mobility shift assay (enzymatic assay); format: biochemical; details: 30 μM ATP, 45 minutes at 30° C., Caliper EZ reader II
T1 construct: human FGFR3 V555M enzyme (cytoplasmic domain carrying V555M mutation, from Carna Biosciences)
Method: FGFR3 V555M Mobility Shift Assay (Enzymatic Assay)
(§1) In a final reaction volume of 25 μL, 0.04 ng/μL human FGFR3 V555M enzyme (cytoplasmic domain carrying V555M mutation, from Carna Biosciences) was incubated with 30 μM ATP, 1 μM FL-peptide 30 substrate and 250 nL of testing compound (1% DMSO final) in assay buffer (100 mM HEPES pH 7.4, 10 mM MgCl2, 0.003% Brij35, 1 mM DTT). After incubation for 45 minutes at 30° C. the reaction was stopped with 10 μL of 0.5M EDTA pH 8.0, and then 25 μL of reaction mixture was transferred to reading plate and measured on Caliper EZ reader II.

[2] = biological target: T2, NIH/3T3 cells overexpressing FGFR3 V555M-TACC3 fusion protein (Homo sapiens, UniProt P22607, V555M, cells depend on it); assay: NIH/3T3 FGFR3 V555M-TACC3 cell proliferation assay; format: cell-based; details: 72-hr incubation, CellTiter Glo; read-out: NIH/3T3 FGFR3 V555M-TACC3 CTG (IC50)
T2 construct: fused on or other part: Q9Y6A5 (Transforming acidic coiled-coil-containing protein 3)
Method: NIH/3T3 FGFR3 V555M-TACC3 Cell Proliferation Assay
(§2) In day 1, 90 μL of cell suspension (NIH/3T3 cells overexpressing FGFR3 V555M-TACC3 fusion protein) (total 30,000 cells per well in growth medium (DMEM containing 1% Glutamax, 10% FBS and 1% Pen/Strep)) was seeded in a 96-well plate and then incubated overnight at 37° C. and 5% CO2. In day 2, 10 μL of growth medium containing 10-fold stock solution of testing compound was added into cell cultures (9 dose points with 4× serial dilution, starting with 10 μM, 0.1% DMSO final). After 72-hr incubation at 37° C. and 5% CO2, in day 5 a volume of 50 μL CellTiter Glo (CTG) reagent was added into cell-containing 96-well plate and the plate was incubated at room temperature for 10 minutes before RLUs (relative light unit) were measured on a microplate reader with luminescence detection module. The RLU value was normalized to survival % and concentration-response curve was plotted using Prism to calculate IC50 (M), pIC50 (−log IC50) and HillSlope value.

[3] = biological target: T3, human FGFR3 wild type enzyme (cytoplasmic domain) (Homo sapiens, UniProt P22607); assay: FGFR3 wild type mobility shift assay (enzymatic assay); format: biochemical; details: 75 μM ATP, 50 minutes at 30° C., Caliper EZ reader II
T3 construct: human FGFR3 wild type enzyme (cytoplasmic domain, from Carna Biosciences)
Method: FGFR3 Wild Type Mobility Shift Assay (Enzymatic Assay)
as §1, with “FGFR3 wild type” for “FGFR3 V555M”, “(cytoplasmic domain,” for “(cytoplasmic domain carrying V555M mutation,”, “with 75” for “with 30”, “for 50” for “for 45”

[4] = biological target: T4, NIH/3T3 cells overexpressing FGFR3 WT-TACC3 fusion protein (Homo sapiens, UniProt P22607); assay: NIH/3T3 FGFR3 WT-TACC3 cell proliferation assay; format: cell-based; details: 72-hr incubation, CellTiter Glo; read-out: NIH/3T3 FGFR3 WT-TACC3 CTG (IC50)
T4 construct: fused on or other part: Q9Y6A5 (Transforming acidic coiled-coil-containing protein 3)
Method: NIH/3T3 FGFR3 WT-TACC3 Cell Proliferation Assay
as §2, with “WT-TACC3” for “V555M-TACC3”

T3 sequence (P22607 397-806): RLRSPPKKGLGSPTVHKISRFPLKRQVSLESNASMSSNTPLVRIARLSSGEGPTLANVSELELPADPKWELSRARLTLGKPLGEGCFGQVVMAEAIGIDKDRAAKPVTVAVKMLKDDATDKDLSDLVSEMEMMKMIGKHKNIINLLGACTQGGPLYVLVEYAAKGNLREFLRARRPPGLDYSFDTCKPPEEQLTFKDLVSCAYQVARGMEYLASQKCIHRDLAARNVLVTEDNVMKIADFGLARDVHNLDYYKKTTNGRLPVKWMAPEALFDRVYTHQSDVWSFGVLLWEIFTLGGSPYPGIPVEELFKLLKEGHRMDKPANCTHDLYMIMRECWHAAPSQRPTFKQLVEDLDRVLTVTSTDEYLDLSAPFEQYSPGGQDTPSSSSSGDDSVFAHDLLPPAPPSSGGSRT
T1 sequence (P22607 397-806 V555M): as the sequence (P22607 397-806) above, with V159M counted along it
T2 sequence (P22607 whole entry V555M, the tested form may be a part): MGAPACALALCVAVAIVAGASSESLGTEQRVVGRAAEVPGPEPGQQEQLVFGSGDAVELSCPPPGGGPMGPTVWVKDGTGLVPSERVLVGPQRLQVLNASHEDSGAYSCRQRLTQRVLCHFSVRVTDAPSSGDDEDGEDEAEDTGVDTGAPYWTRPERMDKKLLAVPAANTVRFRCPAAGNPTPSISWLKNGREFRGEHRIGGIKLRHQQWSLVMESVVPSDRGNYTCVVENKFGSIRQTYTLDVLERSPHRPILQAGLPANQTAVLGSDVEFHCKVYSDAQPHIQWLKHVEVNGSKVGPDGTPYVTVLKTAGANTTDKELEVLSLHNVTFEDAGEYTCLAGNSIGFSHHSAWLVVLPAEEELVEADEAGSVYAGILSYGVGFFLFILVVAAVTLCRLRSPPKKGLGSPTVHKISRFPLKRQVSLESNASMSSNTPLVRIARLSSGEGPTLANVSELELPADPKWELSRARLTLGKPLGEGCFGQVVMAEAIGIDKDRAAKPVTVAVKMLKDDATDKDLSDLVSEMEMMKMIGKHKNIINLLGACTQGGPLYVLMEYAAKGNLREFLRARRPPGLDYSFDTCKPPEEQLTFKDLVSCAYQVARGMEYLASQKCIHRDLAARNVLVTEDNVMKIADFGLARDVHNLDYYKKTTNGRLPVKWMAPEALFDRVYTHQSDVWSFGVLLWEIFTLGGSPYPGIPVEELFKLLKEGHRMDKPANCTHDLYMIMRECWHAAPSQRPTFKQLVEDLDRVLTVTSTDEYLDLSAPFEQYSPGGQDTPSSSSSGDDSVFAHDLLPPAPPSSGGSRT
T4 sequence (P22607 whole entry, change not shown, the tested form may be a part): as the sequence (P22607 whole entry V555M, the tested form may be a part) above, with M555V counted along it

| Compound | IC50 [1] [µM] | GI50 [2] [µM] | IC50 [3] [µM] | GI50 [4] [µM] |
| --- | --- | --- | --- | --- |
| COCC(Nc1c(-c2nc3cc(OC)c(OC)cc3[nH]2)c(=O)[nH]c2cn(C)nc12)c1ncccn1 (single isomer, unassigned) [Compound 25, (S*)-6-(5,6-dimethoxy-1H-benzo[d]imidazol-2-yl)-7-((2-methoxy-1-(pyrimidin-2-yl)ethyl)amino)-2-methyl-2H-pyrazolo[4,3-b]pyridin-5(4H)-one] | 0.00265 | 0.359 | 0.0154 | 0.357 |
| CCC(Nc1c(-c2nc3cc(OC)c(OC)cc3[nH]2)c(=O)[nH]c2cn(CC)nc12)c1ncccn1 (single isomer, unassigned) [Compound 45, (R*)-6-(5,6-dimethoxy-1H-benzo[d]imidazol-2-yl)-2-ethyl-7-((1-(pyrimidin-2-yl)propyl)amino)-2H-pyrazolo[4,3-b]pyridin-5(4H)-one] | 0.347 |  | 0.602 |  |
| CCn1cc2[nH]c(=O)c(-c3nc4c(F)c(OC)c(OC)cc4[nH]3)c(N[C@@H](C)c3ncccn3)c2n1 [Compound 41, (S)-2-ethyl-6-(4-fluoro-5,6-dimethoxy-1H-benzo[d]imidazol-2-yl)-7-((1-(pyrimidin-2-yl)ethyl)amino)-2H-pyrazolo[4,3-b]pyridin-5(4H)-one] |  | 0.0556 |  | 0.0465 |
| CCn1cc2[nH]c(=O)c(-c3nc4ccc(OC)cc4[nH]3)c(N[C@H](C)c3cocn3)c2n1 (single isomer, unassigned) [Compound 34, (R*)-2-ethyl-6-(6-methoxy-H-benzo[d]imidazol-2-yl)-7-((1-(oxazol-4-yl)ethyl)amino)-2H-pyrazolo[4,3-b]pyridin-5(4H)-one] | 0.0328 |  | 0.0395 |  |
| COc1cc2[nH]c(-c3c(N[C@@H](C)c4ncccn4)c4nn(C)cc4[nH]c3=O)nc2c(F)c1OC [Compound 55, (S)-6-(4-fluoro-5,6-dimethoxy-1H-benzo[d]imidazol-2-yl)-2-methyl-7-((1-(pyrimidin-2-yl)ethyl)amino)-2H-pyrazolo[4,3-b]pyridin-5(4H)-one] |  | 0.0118 |  | 17.4 |
| CC[C@H](Nc1c(-c2nc3cnc(N(C)C)cc3[nH]2)c(=O)[nH]c2cn(C)nc12)c1ncccn1 [Compound 22, (S)-6-(6-(dimethylamino)-1H-imidazo[4,5-c]pyridin-2-yl)-2-methyl-7-((1-(pyrimidin-2-yl)propyl)amino)-2H-pyrazolo[4,3-b]pyridin-5(4H)-one] |  | 0.0246 |  | 0.0244 |
| CCn1cc2[nH]c(=O)c(-c3nc4cc(OC)c(OC)cc4[nH]3)c(NC(C)c3cocn3)c2n1 (single isomer, unassigned) [Compound 5C, (R*)-6-(5,6-Dimethoxy-1H-benzo[d]imidazol-2-yl)-2-ethyl-7-((1-(oxazol-4-yl)ethyl)amino)-2H-pyrazolo[4,3-b]pyridin-5(4H)-one] | 0.315 |  | 0.978 |  |

The next lines start with the values.

| IC50 [1] [µM] | GI50 [2] [µM] | IC50 [3] [µM] | GI50 [4] [µM] | Compound |
| --- | --- | --- | --- | --- |
| 0.000753 | 0.0459 | 0.00452 | 0.065 | COc1ccc2nc(-c3c(N[C@H](c4ncccn4)C(C)C)c4nn(C)cc4[nH]c3=O)[nH]c2c1 (single isomer, unassigned) [Compound 15, (S*)-6(5-Methoxy-1H-benzo[d]imidazol-2-yl)-2-methyl-7-((2-methyl-1-(pyrimidin-2-yl)propyl)amino)-2H-pyrazolo[4,3-b]pyridin-5(4H)-one] |
| 0.000803 | 0.2 | 0.00433 | 0.202 | CC(C)C(Nc1c(-c2nc3ccc(C(N)=O)cc3[nH]2)c(=O)[nH]c2cn(C)nc12)c1ncccn1 (single isomer, unassigned) [Compound 9, (S*)-2-(2-methyl-7-((2-methyl-1-(pyrimidin-2-yl)propyl)amino)-5-oxo-4,5-dihydro-2H-pyrazolo[4,3-b]pyridin-6-yl)-1H-benzo[d]imidazole-6-carboxamide] |
| 0.000673 | 0.0319 | 0.00257 | 0.0542 | CC(C)C(Nc1c(-c2nc3ccc(C(=O)N(C)C)cc3[nH]2)c(=O)[nH]c2cn(C)nc12)c1ncccn1 (single isomer, unassigned) [Compound 10, (S*)—N,N-dimethyl-2-(2-methyl-7-((2-methyl-1-(pyrimidin-2-yl)propyl)amino)-5-oxo-4,5-dihydro-2H-pyrazolo[4,3-b]pyridin-6-yl)-1H-benzo[d]imidazole-6-carboxamide] |
|  | 0.0215 | 0.00775 | 0.025 | COCCOc1cc2[nH]c(-c3c(NC(c4ncccn4)C(C)C)c4nn(C)cc4[nH]c3=O)nc2cc1OC (single isomer, unassigned) [Compound 36, (S*)-6(5-methoxy-6-(2-methoxyethoxy)-1H-benzo[d]imidazol-2-yl)-2-methyl-7-((2-methyl-1-(pyrimidin-2-yl)propyl)amino)-2H-pyrazolo[4,3-b]pyridin-5(4H)-one] |
|  | 0.00788 |  | 0.0111 | COc1cc2[nH]c(-c3c(N[C@@H](C)c4ncccn4)c4nn(C)cc4[nH]c3=O)nc2cn1 [Compound 30, (S)-6-(6-methoxy-1H-imidazo[4,5-c]pyridin-2-yl)-2-methyl-7-((1-(pyrimidin-2-yl)ethyl)amino)-2H-pyrazolo[4,3-b]pyridin-5(4H)-one] |
|  | 0.0318 |  | 0.0219 | CCn1cc2[nH]c(=O)c(-c3nc4ccc(OC)cc4[nH]3)c(N[C@@H](C)c3ncccn3)c2n1 [Compound 4, (S)-2-ethyl-6-(6-methoxy-1H-benzo[d]imidazol-2-yl)-7-((1-(pyrimidin-2-yl)ethyl)amino)-2H-pyrazolo[4,3-b]pyridin-5(4H)-one] |
|  | 0.109 |  | 0.106 | COCC(Nc1c(-c2nc3ccc(OC)cc3[nH]2)c(=O)[nH]c2cn(C)nc12)c1ncccn1 (single isomer, unassigned) [Compound 12, (S*)-7-((2-methoxy-1-(pyrimidin-2-yl)ethyl)amino)-6-(6-methoxy-1H-benzo[d]imidazol-2-yl)-2-methyl-2H-pyrazolo[4,3-b]pyridin-5(4H)-one] |
|  | 0.0133 | 0.00714 | 0.0738 | C[C@H](Nc1c(-c2nc3ccc(F)cc3[nH]2)c(=O)[nH]c2cn(C)nc12)c1ncccn1 [Compound 28, (S)-6-(6-Fluoro-1H-benzo[d]imidazol-2-yl)-2-methyl-7-((1-(pyrimidin-2-yl)ethyl)amino)-2H-pyrazolo[4,3-b]pyridin-5(4H)-one] |
|  | 0.0785 |  | 0.081 | COc1cnc2nc(-c3c(NC(c4ncccn4)C(C)C)c4nn(C)cc4[nH]c3=O)[nH]c2c1 (single isomer, unassigned) [Compound 40, (S*)-6-(6-methoxy-1H-imidazo[4,5-b]pyridin-2-yl)-2-methyl-7-((2-methyl-1-(pyrimidin-2-yl)propyl)amino)-2,4-dihydro-5H-pyrazolo[4,3-b]pyridin-5-one] |
| 0.342 |  | 1.36 |  | CC[C@H](Nc1c(-c2nc3ccc(OC)cc3[nH]2)c(=O)[nH]c2cn(C)nc12)c1ncccn1 (single isomer, unassigned) [Compound 16, (S*)-6-(6-Methoxy-1H-benzo[d]imidazol-2-yl)-2-methyl-7-((1-(pyrimidin-2-yl)propyl)amino)-2H-pyrazolo[4,3-b]pyridin-5(4, H)-one] |
